We go through 22 compounds from patent publication US20260374782A1, “NEW COMPOUNDS, PROCESSES FOR PREPARING THE SAME AND THEIR USE AS DRUGS” (B&A ONCOMEDICAL, priority 2022, published 2026).

Where only a bound is given, the exact number is not on record here.

This assay deals with T1, NKCC1 (Homo sapiens, UniProt P55011).
T1 construct: endogenous in cells; host or cells: native HEK293 cells
T1 sequence (P55011 1-1212): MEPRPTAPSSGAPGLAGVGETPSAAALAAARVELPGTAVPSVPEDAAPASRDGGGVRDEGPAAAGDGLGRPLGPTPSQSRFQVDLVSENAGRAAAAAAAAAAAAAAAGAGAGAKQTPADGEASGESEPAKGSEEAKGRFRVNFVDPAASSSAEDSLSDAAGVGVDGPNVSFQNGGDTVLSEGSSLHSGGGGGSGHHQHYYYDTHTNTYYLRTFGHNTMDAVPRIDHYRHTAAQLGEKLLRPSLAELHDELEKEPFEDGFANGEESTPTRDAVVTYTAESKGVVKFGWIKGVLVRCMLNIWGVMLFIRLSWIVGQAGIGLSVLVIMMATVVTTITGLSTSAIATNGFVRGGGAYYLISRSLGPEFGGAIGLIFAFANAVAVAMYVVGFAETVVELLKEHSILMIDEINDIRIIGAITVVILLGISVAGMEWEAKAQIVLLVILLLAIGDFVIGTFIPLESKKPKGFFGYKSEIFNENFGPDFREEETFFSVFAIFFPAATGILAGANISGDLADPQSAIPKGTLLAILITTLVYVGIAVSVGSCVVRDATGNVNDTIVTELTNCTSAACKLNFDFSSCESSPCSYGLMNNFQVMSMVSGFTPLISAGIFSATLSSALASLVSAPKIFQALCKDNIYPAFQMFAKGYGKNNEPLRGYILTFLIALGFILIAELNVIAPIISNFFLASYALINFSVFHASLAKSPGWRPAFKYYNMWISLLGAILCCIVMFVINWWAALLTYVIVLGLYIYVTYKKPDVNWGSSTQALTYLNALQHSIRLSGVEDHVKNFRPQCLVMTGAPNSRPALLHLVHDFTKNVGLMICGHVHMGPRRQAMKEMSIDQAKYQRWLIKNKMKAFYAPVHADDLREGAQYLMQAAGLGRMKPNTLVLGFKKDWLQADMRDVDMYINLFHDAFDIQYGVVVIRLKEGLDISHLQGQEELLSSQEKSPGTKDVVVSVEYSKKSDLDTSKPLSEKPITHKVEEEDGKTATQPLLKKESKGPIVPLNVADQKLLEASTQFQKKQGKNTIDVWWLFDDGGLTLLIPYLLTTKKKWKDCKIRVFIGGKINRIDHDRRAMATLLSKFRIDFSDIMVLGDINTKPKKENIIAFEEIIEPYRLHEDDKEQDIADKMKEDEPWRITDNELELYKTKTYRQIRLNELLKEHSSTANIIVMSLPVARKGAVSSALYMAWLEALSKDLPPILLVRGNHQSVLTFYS
The assay is described as follows: NKCC1-mediated K+ influx (83Rb tracer uptake) in native HEK293 cells, hypertonic saline, 100 μM ouabain. Conditions: for inhibition at 2 µM / inhibition at 20 µM: HEK293, no drug = 1000, 20 μM bumetanide = 0; for inhibition at 2 µM: read-out: NKCC1 mediated flux inhibition at 2 μM (%); for inhibition at 20 µM: read-out: NKCC1 mediated flux inhibition at 20 μM (%). In kind it is cell-based. Summed up: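 Native cells in slightly hypertonic saline with 100 μM ouabain; 15 min preincubation then 15 min 83Rb uptake (0.25 μCi/mL), scintillation counting normalized to protein. Compounds at 2 μM and 20 μM; flux scaled 1000 (no drug) to 0 (20 μM bumetanide), triplicate dishes.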

Usually inhibition stands for the relative decrease from the control value, in per cent. With `CCCCNc1cc(C(=O)NCC(F)(F)F)cc(S(=N)(=O)N2Cc3ccccc3C2)c1Oc1ccccc1` (centres unmarked) [Compound 115, 3-(butylamino)-5-(isoindolin-2-ylsulfonimidoyl)-4-phenoxy-N-(2,2,2-trifluoroethyl)benzamide], the inhibition at 2 µM fell in the range of 50 to 75% and the inhibition at 20 µM lay within 10 to 30%.
With `CCCCNc1cc(C(=O)OC)cc(S(=N)(=O)NCc2cccnc2)c1Oc1ccccc1` (centres unmarked) [Compound 36, methyl 3-(butylamino)-4-phenoxy-5-[(3-pyridylmethylamino)sulfonimidoyl]benzoate], the inhibition at 20 µM was 30 to 50%.
Still for that read-out and setting: the same measure for `CCCCNc1cc(C(=O)OC)cc(S(=N)(=O)NC2CC2)c1Oc1ccccc1` (centres unmarked) [Compound 10, methyl 3-(butylamino)-5-[(cyclopropylamino)sulfonimidoyl]-4-phenoxy-benzoate]: 10 to 30%.
Consider `CCCCNc1cc(C(=O)NCCC(F)(F)F)cc(S(=N)(=O)Nc2ccccc2)c1Oc1ccccc1` (centres unmarked) [Compound 120, 3-(anilinosulfonimidoyl)-5-(butylamino)-4-phenoxy-N-(3,3,3-trifluoropropyl)benzamide], for which the inhibition at 2 µM was in the range of 30 to 50% and the inhibition at 20 µM fell in the range of 30 to 50%.
As for `CCCCNc1cc(C(=O)O)cc(S(=N)(=O)N2CCCCC2)c1Oc1ccccc1` (centres unmarked) [Compound 54, 3-(butylamino)-4-phenoxy-5-(1-piperidylsulfonimidoyl)benzoic acid], the inhibition at 2 µM lay in the range of 30 to 50% and the inhibition at 20 µM is at least 75%.
Consider `CCCCNc1cc(C(=O)NOC)cc(S(=N)(=O)N2Cc3ccccc3C2)c1Oc1ccccc1` (centres unmarked) [Compound 113, 3-(butylamino)-5-(isoindolin-2-ylsulfonimidoyl)-N-methoxy-4-phenoxy-benzamide], for which the inhibition at 2 µM fell in the range of 30 to 50% and the inhibition at 20 µM lay in the range of 10 to 30%.
The like results for `CN=S(C)(=O)c1cc(C(=O)OC)cc(N)c1Oc1ccccc1` (centres unmarked) [Compound 132, methyl 3-amino-5-(N,S-dimethylsulfonimidoyl)-4-phenoxy-benzoate] were, in that order, 30 to 50% and 10 to 30%.
Take `CCCCNc1cc(C(=O)O)cc(S(=N)(=O)Nc2ccnnc2)c1Oc1ccccc1` (centres unmarked) [Compound 93, 3-(butylamino)-4-phenoxy-5-[(pyridazin-4-ylamino)sulfonimidoyl]benzoic acid]: the inhibition at 2 µM lay in the range of 30 to 50% and the inhibition at 20 µM was at least 75%.
Taken in the same sequence, the figures for `CCCCNc1cc(C(=O)O)cc(S(=N)(=O)Nc2ccccc2Cl)c1Oc1ccccc1` (centres unmarked) [Compound 77, 3-(butylamino)-5-[(2-chloroanilino)sulfonimidoyl]-4-phenoxy-benzoic acid] were 30 to 50% and at least 75%.
Consider `CCCCNc1cc(C(=O)O)cc(S(C)(=N)=O)c1Oc1ccccc1` (centres unmarked) [Compound 130, 3-(butylamino)-5-(methylsulfonimidoyl)-4-phenoxy-benzoic acid], for which the inhibition at 2 µM fell in the range of 10 to 30% and the inhibition at 20 µM fell in the range of 50 to 75%.
On to `C[C@@H]1O[C@@H](O[C@H]2C[C@@H](O)[C@]3(CO)[C@H]4[C@H](O)C[C@]5(C)[C@@H](C6=CC(=O)OC6)CC[C@]5(O)[C@@H]4CC[C@]3(O)C2)[C@H](O)[C@H](O)[C@H]1O` [Ouabain, ouabain, reference compound], for which, where the note is “100 μM, inhibitor of the Na+/K+ pump”, the “effect on flux not mediated by the cotransporter” value was “greatly reduced the flux not mediated by the cotransporter”.
Regarding `CCCCNc1cc(C(=O)OC)cc(S(=N)(=O)Nc2ccccc2Cl)c1Oc1ccccc1` (centres unmarked) [Compound 26, methyl 3-(butylamino)-5-[(2-chloroanilino)sulfonimidoyl]-4-phenoxy-benzoate], the inhibition at 20 µM fell in the range of 10 to 30%.
In the case of `CCCCNc1cc(C(=O)O)cc(S(=N)(=O)Nc2cnccn2)c1Oc1ccccc1` (centres unmarked) [Compound 73, 3-(butylamino)-4-phenoxy-5-[(pyrazin-2-ylamino)sulfonimidoyl]benzoic acid], the inhibition at 2 µM was at least 75% and the inhibition at 20 µM was at least 75%.
`CCCCNc1cc(C(=O)OC)cc(S(=N)(=O)NCC2CCN(C(C)=O)CC2)c1Oc1ccccc1` (centres unmarked) [Compound 49, methyl 3-[[(1-acetyl-4-piperidyl)methylamino]sulfonimidoyl]-5-(butylamino)-4-phenoxy-benzoate]: the inhibition at 2 µM was in the range of 30 to 50% and the inhibition at 20 µM was in the range of 10 to 30%.
As for `CCCCNc1cc(C(=O)O)cc(S(=N)(=O)Nc2ccncc2)c1Oc1ccccc1` (centres unmarked) [Compound 91, 3-(butylamino)-4-phenoxy-5-[(4-pyridylamino)sulfonimidoyl]benzoic acid], the inhibition at 2 µM was 30 to 50% and the inhibition at 20 µM was at least 75%.
With `CCCCNc1cc(C(=O)OC)cc(S(=N)(=O)Nc2ccccn2)c1Oc1ccccc1` (centres unmarked) [Compound 41, methyl 3-(butylamino)-4-phenoxy-5-[(2-pyridylamino)sulfonimidoyl]benzoate], the inhibition at 20 µM lay in the range of 30 to 50%.
On to `CCCCNc1cc(C(=O)O)cc(S(=N)(=O)Nc2ncccn2)c1Oc1ccccc1` (centres unmarked) [Compound 76, 3-(butylamino)-4-phenoxy-5-[(pyrimidin-2-ylamino)sulfonimidoyl]benzoic acid], for which the inhibition at 2 µM fell in the range of 10 to 30% and the inhibition at 20 µM was 50 to 75%.
Turning to `CCCCNc1cc(C(=O)O)cc(S(=N)(=O)N2CC3CCC(C2)O3)c1Oc1ccccc1` (centres unmarked) [Compound 69, 3-(butylamino)-5-(8-oxa-3-azabicyclo[3.2.1]octan-3-ylsulfonimidoyl)-4-phenoxy-benzoic acid], the inhibition at 2 µM was 50 to 75% and the inhibition at 20 µM fell in the range of 50 to 75%.
With `CCCCNc1cc(C(=O)OC)cc(S(=N)(=O)Nc2cccc(Cl)c2)c1Oc1ccccc1` (centres unmarked) [Compound 22, methyl 3-(butylamino)-5-[(3-chloroanilino)sulfonimidoyl]-4-phenoxy-benzoate], the inhibition at 2 µM was 30 to 50% and the inhibition at 20 µM was 30 to 50%.
`CCCCNc1cc(C(=O)O)cc(S(=N)(=O)Nc2nccs2)c1Oc1ccccc1` (centres unmarked) [Compound 90, 3-(butylamino)-4-phenoxy-5-[(thiazol-2-ylamino)sulfonimidoyl]benzoic acid]: the inhibition at 2 µM is 30 to 50% and the inhibition at 20 µM is at least 75%.
Consider `CCCCNc1cc(C(=O)OC)cc(S(=N)(=O)NC23CC(C2)C3)c1Oc1ccccc1` (centres unmarked) [Compound 47, methyl 3-[(1-bicyclo[1.1.1]pentanylamino)sulfonimidoyl]-5-(butylamino)-4-phenoxy-benzoate], for which the inhibition at 2 µM lay in the range of 30 to 50% and the inhibition at 20 µM was 30 to 50%.
Turning to `CCCCNc1cc(C(=O)NCC(F)(F)F)cc(S(=N)(=O)Nc2ccccc2)c1Oc1ccccc1` (centres unmarked) [Compound 111, 3-(anilinosulfonimidoyl)-5-(butylamino)-N-(2,2,2-trifluoroethyl)-4-phenoxy-benzamide], the inhibition at 20 µM lay in the range of 10 to 30%.
